Measured values: paper PMC2644304 (Nature chemical biology, 2009)

Molecular target: AcsD (Dickeya chrysanthemi, UniProt Q93AT8)
Assay: X-ray crystal structure of the complex
Assay type: binding
Settings: co-crystal with sulfate and citrate; ATP site

Nc1ncnc2c1ncn2[C@@H]1O[C@H](CO)[C@@H](O)[C@H]1O [adenosine]
X-ray crystal structure of the complex: adenosine binds in the same pocket as seen in the ATP structure
